Test results as given in ChEMBL document CHEMBL1127122, “Neurotensin receptor binding and antinociceptive activity for lipophilic N-amido neurotensin(913) analogs” (Bioorg Med Chem Lett, 1993).
Non-standard residues stand in square brackets, D forms with d. Residues, ends and D or L forms follow the SMILES beside them. *: point of attachment. X1 = O=C(C(F)(F)C(F)(F)C(F)(F)C(F)(F)C(F)(F)C(F)(F)C(F)(F)F)*; Adamantane1carbonyl = O=C(C12CC3CC(CC(C3)C1)C2)*; Benzoyl(4-Ph) = O=C(c1ccc(-c2ccccc2)cc1)*; Benzoyl(4-tBu) = CC(C)(C)c1ccc(C(=O)*)cc1; Butanoyl(3,3-Me2) = CC(C)(C)CC(=O)*; Stearoyl = CCCCCCCCCCCCCCCCCC(=O)*; X3 = O=C1NC2CSC(CCCCC(=O)*)C2N1; Nicotinoyl = O=C(c1cccnc1)*; Orn = NCCC[C@H](N)C(=O)O; X2 = O=C(CC1CCC2CCCC21)*; X4 = O=C(CC1CC2CCC1C2)*; Boc = CC(C)(C)OC(=O)*; Piv = CC(C)(C)C(=O)*; Bz = O=C(c1ccccc1)*

How the values were obtained:
Mus musculus [1] = assay: Analgesic activity in fasted male mice in phenylquinone writhing assay 40 min after i.c.v. administration.; type: functional
Mus musculus [2] = assay: Analgesic activity in fasted male mice in phenylquinone writhing assay 5 min after i.c.v. administration.; type: functional
Mus musculus [3] = assay: Analgesic activity of i.v. administered compound in fasted male mice at 5 min. interval was determined using phenylquinone writhing assay; type: functional; settings: iv
Mus musculus [4] = assay: Analgesic activity of i.v. administered compound in fasted male mice at 10 min. interval was determined using phenylquinone writhing assay; type: functional; settings: iv
Mus musculus [5] = assay: Analgesic activity in fasted male mice in phenylquinone writhing assay 10 min after i.c.v. administration.; type: functional
[6] = biological target: Kappa-type opioid receptor (Cavia porcellus, UniProt P41144); assay: Compound was evaluated for binding affinity against Opioid receptor kappa 1 by opioid receptor binding assay: Inactive
Sequence of Kappa-type opioid receptor (P41144 whole entry): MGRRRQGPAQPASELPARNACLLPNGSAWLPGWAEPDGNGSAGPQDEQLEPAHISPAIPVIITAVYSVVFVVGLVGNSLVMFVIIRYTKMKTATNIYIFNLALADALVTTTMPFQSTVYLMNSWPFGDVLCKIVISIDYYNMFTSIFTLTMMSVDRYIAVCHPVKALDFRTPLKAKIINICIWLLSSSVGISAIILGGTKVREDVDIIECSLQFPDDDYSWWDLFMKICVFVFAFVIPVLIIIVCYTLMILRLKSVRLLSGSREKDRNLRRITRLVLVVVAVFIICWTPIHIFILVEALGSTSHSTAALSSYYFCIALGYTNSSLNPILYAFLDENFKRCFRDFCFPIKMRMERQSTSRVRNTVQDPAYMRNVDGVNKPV

Mu-type opioid receptor = Mu-type opioid receptor (Cavia porcellus, UniProt P97266); assay: Compound was evaluated for binding affinity against mu receptor by opioid receptor binding assay: Inactive
Sequence of Mu-type opioid receptor (P97266 whole entry): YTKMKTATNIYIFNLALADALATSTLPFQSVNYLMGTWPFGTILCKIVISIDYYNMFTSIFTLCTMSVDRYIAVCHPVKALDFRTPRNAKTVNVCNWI

[7] = biological target: Neurotensin receptor type 1 (Rattus norvegicus, UniProt P20789); assay: Binding affinity against rat neurotensin receptor.
Sequence of Neurotensin receptor type 1 (P20789 whole entry): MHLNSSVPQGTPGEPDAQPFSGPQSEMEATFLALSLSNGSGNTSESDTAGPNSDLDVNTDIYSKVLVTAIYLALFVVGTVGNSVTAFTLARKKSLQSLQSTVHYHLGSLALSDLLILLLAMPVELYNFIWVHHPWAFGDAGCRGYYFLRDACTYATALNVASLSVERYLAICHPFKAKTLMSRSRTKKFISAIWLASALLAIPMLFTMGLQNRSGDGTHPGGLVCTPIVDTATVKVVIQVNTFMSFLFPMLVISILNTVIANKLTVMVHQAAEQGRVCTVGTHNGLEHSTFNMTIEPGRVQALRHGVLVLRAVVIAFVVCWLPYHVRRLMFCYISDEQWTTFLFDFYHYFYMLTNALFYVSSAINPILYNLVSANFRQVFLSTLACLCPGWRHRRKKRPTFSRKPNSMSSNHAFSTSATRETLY

Compound | ED50 (Mus musculus [1]) [ug mouse-1] | ED50 (Mus musculus [2]) [ug mouse-1] | ED50 (Mus musculus [3]) [mg/kg] | ED50 (Mus musculus [4]) [mg/kg] | ED50 (Mus musculus [5]) [ug mouse-1] | Ki [6] [nM] | Ki (Mu-type opioid receptor) [nM] | Ki [7] [nM]
CC[C@H](C)[C@H](NC(=O)[C@H](Cc1ccc(O)cc1)NC(=O)[C@@H]1CCCN1C(=O)[C@H](CCCCN)NC(=O)CC(C)(C)C)C(=O)N[C@@H](CC(C)C)C(=O)O ({Butanoyl(3,3-Me2)}-KPYIL-OH) [listing 1 of 2 here] | 1.2 | 0.095 | 6.2 | 4.9 | 0.1 | – | – | –
CC[C@H](C)[C@H](NC(=O)[C@H](Cc1ccc(O)cc1)NC(=O)[C@@H]1CCCN1C(=O)[C@H](CCCCN)NC(=O)c1cccnc1)C(=O)N[C@@H](CC(C)C)C(=O)O (Nicotinoyl-KPYIL-OH) [listing 1 of 2 here] | 0.3 | 0.0016 | 3.6 | 3 | 0.016 | – | – | –
CC[C@H](C)[C@H](NC(=O)[C@H](Cc1ccc(O)cc1)NC(=O)[C@@H]1CCCN1C(=O)[C@H](CCCCN)NC(=O)c1ccc(C(C)(C)C)cc1)C(=O)N[C@@H](CC(C)C)C(=O)O ({Benzoyl(4-tBu)}-KPYIL-OH) [listing 1 of 2 here] | 0.32 | 0.075 | 12 | 6.6 | 0.088 | – | – | –
CC[C@H](C)[C@H](NC(=O)[C@H](Cc1ccc(O)cc1)NC(=O)[C@@H]1CCCN1C(=O)[C@H](CCCCN)NC(=O)C12CC3CC(CC(C3)C1)C2)C(=O)N[C@@H](CC(C)C)C(=O)O (Adamantane1carbonyl-KPYIL-OH) | 0.71 | 0.15 | 2.2 | 2.8 | 0.22 | > 10000 | > 10000 | –
Ac-KPYIL-OH [listing 1 of 2 here] | <50 | <50 | – | – | <50 | – | – | –
CC[C@H](C)[C@H](NC(=O)[C@H](Cc1ccc(O)cc1)NC(=O)[C@@H]1CCCN1C(=O)[C@H](CCCCN)NC(=O)OC(C)(C)C)C(=O)N[C@@H](CC(C)C)C(=O)O (Boc-KPYIL-OH) | 0.2 | 0.02 | 3.1 | 6.5 | 0.11 | – | – | –
CC[C@H](C)[C@H](NC(=O)[C@H](Cc1ccc(O)cc1)NC(=O)[C@@H]1CCCN1C(=O)[C@H](CCCCN)NC(=O)C(C)(C)C)C(=O)N[C@@H](CC(C)C)C(=O)O (Piv-KPYIL-OH) [listing 1 of 2 here] | – | – | – | – | – | – | – | 190
CCCCCCCCCCCCCCCCCC(=O)N[C@@H](CCCCN)C(=O)N1CCC[C@H]1C(=O)N[C@@H](Cc1ccc(O)cc1)C(=O)N[C@H](C(=O)N[C@@H](CC(C)C)C(=O)O)[C@@H](C)CC (Stearoyl-KPYIL-OH) [listing 1 of 2 here] | >50 | 38 | – | – | >50 | – | – | –
CC[C@H](C)[C@H](NC(=O)[C@H](Cc1ccc(O)cc1)NC(=O)[C@@H]1CCCN1C(=O)[C@H](CCCN)NC(=O)C12CC3CC(CC(C3)C1)C2)C(=O)N[C@@H](CC(C)C)C(=O)O (Adamantane1carbonyl-[Orn]PYIL-OH) [listing 1 of 2 here] | – | – | – | – | – | – | – | 180
CC[C@H](C)[C@H](NC(=O)[C@H](Cc1ccc(O)cc1)NC(=O)[C@@H]1CCCN1C(=O)[C@@H](N)CCCN)C(=O)N[C@@H](CC(C)C)C(=O)O (H-[Orn]PYIL-OH) [listing 1 of 2 here] | 67 | 23 | – | – | 20 | – | – | –
CC[C@H](C)[C@H](NC(=O)[C@H](Cc1ccc(O)cc1)NC(=O)[C@@H]1CCCN1C(=O)[C@H](CCCCN)NC(=O)c1ccc(C(C)(C)C)cc1)C(=O)N[C@@H](CC(C)C)C(=O)O ({Benzoyl(4-tBu)}-KPYIL-OH) [listing 2 of 2 here] | – | – | – | – | – | – | – | 220
CC[C@H](C)[C@H](NC(=O)[C@H](Cc1ccc(O)cc1)NC(=O)[C@@H]1CCCN1C(=O)[C@H](CCCCN)NC(=O)CCCCC1SCC2NC(=O)NC21)C(=O)N[C@@H](CC(C)C)C(=O)O (stereo not given in full) (X3-KPYIL-OH) [listing 1 of 2 here] | 8.3 | 0.86 | > 81 | ≥ 81 | 2 | – | – | –
CC[C@H](C)[C@H](NC(=O)[C@H](Cc1ccc(O)cc1)NC(=O)[C@@H]1CCCN1C(=O)[C@H](CCCCN)NC(=O)CC(C)(C)C)C(=O)N[C@@H](CC(C)C)C(=O)O ({Butanoyl(3,3-Me2)}-KPYIL-OH) [listing 2 of 2 here] | – | – | – | – | – | – | – | 680
CC[C@H](C)[C@H](NC(=O)[C@H](Cc1ccc(O)cc1)NC(=O)[C@@H]1CCCN1C(=O)[C@H](CCCN)NC(=O)OC(C)(C)C)C(=O)N[C@@H](CC(C)C)C(=O)O (Boc-[Orn]PYIL-OH) | 0.69 | 0.00084 | 0.85 | 2 | 0.044 | – | – | –
CC[C@H](C)[C@H](NC(=O)[C@H](Cc1ccc(O)cc1)NC(=O)[C@@H]1CCCN1C(=O)[C@@H](N)CCCN)C(=O)N[C@@H](CC(C)C)C(=O)O (H-[Orn]PYIL-OH) [listing 2 of 2 here] | – | – | – | – | – | – | – | 520
CC[C@H](C)[C@H](NC(=O)[C@H](Cc1ccc(O)cc1)NC(=O)[C@@H]1CCCN1C(=O)[C@H](CCCCN)NC(=O)CC1CC2CCC1C2)C(=O)N[C@@H](CC(C)C)C(=O)O (stereo not given in full) (X4-KPYIL-OH) | 2.7 | 0.018 | 24 | 19 | 0.29 | – | – | 1000
CCCCCCCCCCCCCCCCCC(=O)N[C@@H](CCCCN)C(=O)N1CCC[C@H]1C(=O)N[C@@H](Cc1ccc(O)cc1)C(=O)N[C@H](C(=O)N[C@@H](CC(C)C)C(=O)O)[C@@H](C)CC (Stearoyl-KPYIL-OH) [listing 2 of 2 here] | – | – | – | – | – | – | – | > 10000
CC[C@H](C)[C@H](NC(=O)[C@H](Cc1ccc(O)cc1)NC(=O)[C@@H]1CCCN1C(=O)[C@H](CCCCN)NC(=O)c1ccc(-c2ccccc2)cc1)C(=O)N[C@@H](CC(C)C)C(=O)O ({Benzoyl(4-Ph)}-KPYIL-OH) [listing 1 of 2 here] | – | – | – | – | – | – | – | 880
CC[C@H](C)[C@H](NC(=O)[C@H](Cc1ccc(O)cc1)NC(=O)[C@@H]1CCCN1C(=O)[C@H](CCCCN)NC(=O)c1cccnc1)C(=O)N[C@@H](CC(C)C)C(=O)O (Nicotinoyl-KPYIL-OH) [listing 2 of 2 here] | – | – | – | – | – | – | – | 420
CC[C@H](C)[C@H](NC(=O)[C@H](Cc1ccc(O)cc1)NC(=O)[C@@H]1CCCN1C(=O)[C@H](CCCCN)NC(=O)C(C)(C)C)C(=O)N[C@@H](CC(C)C)C(=O)O (Piv-KPYIL-OH) [listing 2 of 2 here] | 0.7 | 0.28 | 15 | 15 | 0.29 | – | – | –
H-KPYIL-OH | 26 | 8 | > 81 | > 81 | 10 | – | – | –
CC[C@H](C)[C@H](NC(=O)[C@H](Cc1ccc(O)cc1)NC(=O)[C@@H]1CCCN1C(=O)[C@H](CCCCN)NC(=O)CCCCC1SCC2NC(=O)NC21)C(=O)N[C@@H](CC(C)C)C(=O)O (stereo not given in full) (X3-KPYIL-OH) [listing 2 of 2 here] | – | – | – | – | – | – | – | 290
CC[C@H](C)[C@H](NC(=O)[C@H](Cc1ccc(O)cc1)NC(=O)[C@@H]1CCCN1C(=O)[C@H](CCCCN)NC(=O)C(F)(F)C(F)(F)C(F)(F)C(F)(F)C(F)(F)C(F)(F)C(F)(F)F)C(=O)N[C@@H](CC(C)C)C(=O)O (X1-KPYIL-OH) [listing 1 of 2 here] | 4.4 | 2.2 | 32 | 17 | 3.7 | – | – | –
CC[C@H](C)[C@H](NC(=O)[C@H](Cc1ccc(O)cc1)NC(=O)[C@@H]1CCCN1C(=O)[C@H](CCCCN)NC(=O)c1ccc(-c2ccccc2)cc1)C(=O)N[C@@H](CC(C)C)C(=O)O ({Benzoyl(4-Ph)}-KPYIL-OH) [listing 2 of 2 here] | 50 | 1.7 | < 27 | 13 | 2.8 | – | – | –
CC[C@H](C)[C@H](NC(=O)[C@H](Cc1ccc(O)cc1)NC(=O)[C@@H]1CCCN1C(=O)[C@H](CCCCN)NC(=O)c1ccccc1)C(=O)N[C@@H](CC(C)C)C(=O)O (Bz-KPYIL-OH) [listing 1 of 2 here] | 1.5 | 0.0088 | 6.6 | 5.5 | 0.16 | – | – | –
CC[C@H](C)[C@H](NC(=O)[C@H](Cc1ccc(O)cc1)NC(=O)[C@@H]1CCCN1C(=O)[C@H](CCCN)NC(=O)C12CC3CC(CC(C3)C1)C2)C(=O)N[C@@H](CC(C)C)C(=O)O (Adamantane1carbonyl-[Orn]PYIL-OH) [listing 2 of 2 here] | 3.6 | 0.13 | 4.8 | 11 | 0.45 | – | – | –
CC[C@H](C)[C@H](NC(=O)[C@H](Cc1ccc(O)cc1)NC(=O)[C@@H]1CCCN1C(=O)[C@H](CCCCN)NC(=O)c1ccccc1)C(=O)N[C@@H](CC(C)C)C(=O)O (Bz-KPYIL-OH) [listing 2 of 2 here] | – | – | – | – | – | – | – | 100
CC[C@H](C)[C@H](NC(=O)[C@H](Cc1ccc(O)cc1)NC(=O)[C@@H]1CCCN1C(=O)[C@H](CCCCN)NC(=O)CC1CCC2CCCC21)C(=O)N[C@@H](CC(C)C)C(=O)O (stereo not given in full) (X2-KPYIL-OH) | 2.5 | 0.1 | 12 | 15 | 0.41 | – | – | 540
CC[C@H](C)[C@H](NC(=O)[C@H](Cc1ccc(O)cc1)NC(=O)[C@@H]1CCCN1C(=O)[C@H](CCCCN)NC(=O)C(F)(F)C(F)(F)C(F)(F)C(F)(F)C(F)(F)C(F)(F)C(F)(F)F)C(=O)N[C@@H](CC(C)C)C(=O)O (X1-KPYIL-OH) [listing 2 of 2 here] | – | – | – | – | – | – | – | 2100
Ac-KPYIL-OH [listing 2 of 2 here] | – | – | – | – | – | – | – | 2100
